Measured values taken from the supplement of paper PMC4862054.

How the values were obtained:
Conditions in all cases: incubation time: 72 h
MDA-MB-231 [1] = assay: drug sensitivity score (DSS), CellTox Green (DSS (AUC-based score)); higher = stronger drug effect (viability inhibition or cytotoxicity); extreme values may be limits of the assay
Method in brief: (§1)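 After 72 h of incubation in 384-well plates with compound at 5 concentrations (10-fold steps, 10,000-fold range set per compound), breast cancer cell lines seeded in 20 µl suspension were read first for CellTox Green fluorescence at 485/520 nm. CellTiter-Glo luminescence was measured next, after 10 min at room temperature. Normalisation on each plate used 0.1 % DMSO and a positive kill control, and the drug sensitivity score was computed from the area under the fitted dose-response curve.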

DU-4475 = assay: as above
Method in brief: as §1

CAL-148 [2] = assay: as above
Method in brief: as §1

Hs578T = assay: as above
Method in brief: as §1

BT-474 = assay: as above
Method in brief: as §1

MFM-223 [3] = assay: as above
Method in brief: as §1

HDQ-P1 [4] = assay: as above
Method in brief: as §1

HCC1143 = assay: as above
Method in brief: as §1

CAL-120 [5] = assay: as above
Method in brief: as §1

HCC1599 = assay: as above
Method in brief: as §1

HCC1937 = assay: as above
Method in brief: as §1

CAL-51 [6] = assay: as above
Method in brief: as §1

MDA-MB-436 = assay: as above
Method in brief: as §1

CAL-85-1 [7] = assay: as above
Method in brief: as §1

BT-549 [8] = assay: as above
Method in brief: as §1

MDA-MB-231 [9] = assay: normalised viability (% of control), CellTiter-Blue; higher = more viable cells (about 100 = DMSO control)
Method in brief: (§2)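 Breast cancer cell lines in 20 µl suspension were seeded onto 384-well plates pre-loaded with compound dissolved in 5 µl medium, then incubated 72 h. CellTiter-Blue reagent (2.5 µl) was added for 2 h at 37 °C and fluorescence read at 560/590 nm. Each plate was normalised to vehicle (100) and a positive kill control (0), with Z'-factor quality control. The value is normalised viability at one listed concentration of the series.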

CAL-148 [10] = assay: as above
Method in brief: as §2

SK-BR-3 = assay: as above
Method in brief: as §2

MFM-223 [11] = assay: as above
Method in brief: as §2

HDQ-P1 [12] = assay: as above
Method in brief: as §2

CAL-120 [13] = assay: as above
Method in brief: as §2

BT-549 [14] = assay: as above
Method in brief: as §2

MDA-MB-468 = assay: as above
Method in brief: as §2

CAL-51 [15] = assay: as above
Method in brief: as §2

CAL-85-1 [16] = assay: as above
Method in brief: as §2

SMILES: CCn1c(C(=O)N(C2CC2)C2CC2)cc2c3c(ncn3C)c(Nc3cc(C)n(C)n3)nc21
- drug sensitivity score (MDA-MB-231 [1]): 0
- drug sensitivity score (DU-4475): 0
- drug sensitivity score (CAL-148 [2]): 0
- drug sensitivity score (Hs578T): 0
- drug sensitivity score (BT-474): 0
- drug sensitivity score (MFM-223 [3]): 0
- drug sensitivity score (HDQ-P1 [4]): 0
- drug sensitivity score (HCC1143): 1.62
- drug sensitivity score (CAL-120 [5]): 0
- drug sensitivity score (HCC1599): 0
- drug sensitivity score (HCC1937): 3.5
- drug sensitivity score (CAL-51 [6]): 0
- drug sensitivity score (MDA-MB-436): 0
- drug sensitivity score (CAL-85-1 [7]): 0

SMILES: CN[C@@H](C)C(=O)N[C@H]1CN(C(=O)CC(C)C)CC[C@H]2CC[C@@H](C(=O)NC(c3ccccc3)c3ccccc3)N2C1=O [AT-406]
- drug sensitivity score (MDA-MB-231 [1]): 25.5
- drug sensitivity score (DU-4475): 0
- drug sensitivity score (Hs578T): 0
- drug sensitivity score (BT-474): 0.17
- drug sensitivity score (MFM-223 [3]): 0
- drug sensitivity score (HDQ-P1 [4]): 4.26
- drug sensitivity score (HCC1143): 0
- drug sensitivity score (BT-549 [8]): 8.86
- drug sensitivity score (HCC1599): 0
- drug sensitivity score (HCC1937): 0
- drug sensitivity score (CAL-51 [6]): 0
- drug sensitivity score (MDA-MB-436): 0
- drug sensitivity score (CAL-85-1 [7]): 22.9

SMILES: CCNC(=O)CCC/C=C\C[C@@H]1[C@@H](/C=C/[C@@H](O)CCc2ccccc2)[C@H](O)C[C@@H]1O [Bimatoprost]
- drug sensitivity score (MDA-MB-231 [1]): 0
- drug sensitivity score (DU-4475): 0
- drug sensitivity score (CAL-148 [2]): 0
- drug sensitivity score (Hs578T): 2.06
- drug sensitivity score (BT-474): 0
- drug sensitivity score (MFM-223 [3]): 0
- drug sensitivity score (HCC1143): 0
- drug sensitivity score (CAL-120 [5]): 0
- drug sensitivity score (BT-549 [8]): 0
- drug sensitivity score (HCC1599): 0
- drug sensitivity score (HCC1937): 0
- drug sensitivity score (CAL-51 [6]): 0
- drug sensitivity score (MDA-MB-436): 0
- drug sensitivity score (CAL-85-1 [7]): 0
- normalised viability (MDA-MB-231 [9]; 5.5 nM): 100%
- normalised viability (MDA-MB-231 [9]; 550 nM): 97.2%
- normalised viability (MDA-MB-231 [9]; 5500 nM): 97.6%
- normalised viability (CAL-148 [10]; 1.65 nM): 92.6%
- normalised viability (CAL-148 [10]; 16.5 nM): 90.9%
- normalised viability (CAL-148 [10]; 55 nM): 95.2%
- normalised viability (SK-BR-3; 5.5 nM): 98.7%
- normalised viability (SK-BR-3; 550 nM): 110%
- normalised viability (SK-BR-3; 5500 nM): 97%
- normalised viability (MFM-223 [11]; 5.5 nM): 112%
- normalised viability (MFM-223 [11]; 550 nM): 104%
- normalised viability (MFM-223 [11]; 5500 nM): 96.7%
- normalised viability (HDQ-P1 [12]; 1.65 nM): 111%
- normalised viability (HDQ-P1 [12]; 16.5 nM): 103%
- normalised viability (HDQ-P1 [12]; 55 nM): 102%
- normalised viability (CAL-120 [13]; 5.5 nM): 95.3%
- normalised viability (CAL-120 [13]; 550 nM): 92.4%
- normalised viability (CAL-120 [13]; 5500 nM): 94%
- normalised viability (BT-549 [14]; 5.5 nM): 102%
- normalised viability (BT-549 [14]; 550 nM): 109%
- normalised viability (BT-549 [14]; 5500 nM): 85.5%
- normalised viability (MDA-MB-468; 5.5 nM): 97.1%
- normalised viability (MDA-MB-468; 550 nM): 123%
- normalised viability (MDA-MB-468; 5500 nM): 111%
- normalised viability (CAL-51 [15]; 1.65 nM): 124%
- normalised viability (CAL-51 [15]; 16.5 nM): 114%
- normalised viability (CAL-51 [15]; 55 nM): 112%
- normalised viability (CAL-85-1 [16]; 1.65 nM): 97.1%
- normalised viability (CAL-85-1 [16]; 16.5 nM): 92.5%
- normalised viability (CAL-85-1 [16]; 55 nM): 101%

SMILES: CC1(COc2ccc3c(c2)ncn3-c2ccc3cccc(N4CCC(N)CC4)c3n2)COC1 [Crenolanib]
- drug sensitivity score (MDA-MB-231 [1]): 6.39
- drug sensitivity score (DU-4475): 0.612
- drug sensitivity score (CAL-148 [2]): 6.78
- drug sensitivity score (Hs578T): 0
- drug sensitivity score (BT-474): 5.99
- drug sensitivity score (MFM-223 [3]): 0
- drug sensitivity score (HDQ-P1 [4]): 7.06
- drug sensitivity score (HCC1143): 1.14
- drug sensitivity score (CAL-120 [5]): 0
- drug sensitivity score (BT-549 [8]): 4.07
- drug sensitivity score (HCC1599): 0
- drug sensitivity score (HCC1937): 0
- drug sensitivity score (CAL-51 [6]): 4.42
- drug sensitivity score (MDA-MB-436): 18.5
- drug sensitivity score (CAL-85-1 [7]): 6.6

SMILES: CC(C)(C)c1nc(-c2cccc(NS(=O)(=O)c3c(F)cccc3F)c2F)c(-c2ccnc(N)n2)s1 [Dabrafenib]
- drug sensitivity score (MDA-MB-231 [1]): 0
- drug sensitivity score (DU-4475): 3.29
- drug sensitivity score (CAL-148 [2]): 1.13
- drug sensitivity score (Hs578T): 18.1
- drug sensitivity score (BT-474): 0
- drug sensitivity score (MFM-223 [3]): 0
- drug sensitivity score (HDQ-P1 [4]): 1.28
- drug sensitivity score (HCC1143): 0
- drug sensitivity score (CAL-120 [5]): 0
- drug sensitivity score (BT-549 [8]): 0
- drug sensitivity score (HCC1599): 0
- drug sensitivity score (HCC1937): 1.11
- drug sensitivity score (CAL-51 [6]): 0
- drug sensitivity score (MDA-MB-436): 0
- drug sensitivity score (CAL-85-1 [7]): 0
